From patent US20240207244A1, “COMPOSITIONS AND METHODS FOR TREATING NEURODEGENERATIVE DISORDERS THROUGH INHIBITION OF CD44 AND FERM PROTEIN INTERACTION” (Arizona Board of Regents on Behalf of the University of …, priority 2021, published 2024)

Tests used:
[1] = target: T1, Moesin (Homo sapiens, UniProt P26038); assay: Saturation transfer difference NMR (STD-NMR) binding to Moesin
From the text: Following in silico docking, we (the inventors) triage binding using saturation transfer difference NMR (STD-NMR) as is routinely done in our laboratory to define binding of small molecules (see, Mollasalehi, N. et al. ACS Chem Biol, doi: 10.1021/acschembio.0c00494 (2020): Francois-Moutal, L. et al. ACS Chem Biol 14, 2006-2013, doi: 10.1021/acschembio.9b00481 (2019): François-Moutal, L. et al. ACS Chem Biol 13, 3000-3010, doi:10.1021/acschembio.8b00745 (2018)) (FIG. 2A). After testing the ability of all compounds to bind to Moesin. […] We then measured the affinity of binding using micro-scale thermophoresis (MST), a technique to quantify biomolecular interactions, based on thermophoresis. Concentration-dependent measurements were done using MST to determine dissociation constant for binding of P1 to Moesin and we obtained Apparent Kd=Xxx±xxx μM. Data are presented as mean±SD (n=3) (FIG. 3).

[2] = target: GST (Schistosoma japonicum, UniProt P08515); assay: STD-NMR binding to control GST; conditions: control protein
[3] = system: HMC3 cells; assay: Flow cytometry of HLA-DR expression in IFNγ-stimulated HMC3 microglial cells; format: cell-based, Human; conditions: HMC3 cells pre-incubated 24 h, then stimulated with IFNγ
From the text: Once we define the binding using purified protein, we validate the binding in cells. We have done this through imaging by using the Lumio™ system for site-specific fluorescent labeling of recombinant proteins in living cells, flow cytometry assays, and cellular thermal shift assay (CETSA). • Lumio™ System Imaging: This recently developed method relies on FLASH (Fluorescein Arsenical Hairpin) technology, which uses biarsenical labeling reagents to bind and detect proteins containing a tetracysteine (TC) motif (Griffin et al., 1998). The biarsenical labeling reagents are nonfluorescent until they bind the TC motif at which time, they become highly fluorescent. Both, a genetically engineered CD44 containing a TC motif, and mCherry-Moesin, were co-transfected into Immortalized Human Microglia (SV40 cell line) (FIG. 5). Ongoing work is being done to optimize this protocol and adapt it for use with small compounds. • Flow Cytometry: Current studies of microglial activation are widely performed to study neuroinflammation and test small compounds and their anti-inflammatory properties. IFNγ was be used to activate macrophage response in HMC3 cells (Human microglial cell line, PMID: 30200996), while flow cytometry was employed in combination with small compounds. […] Reactive microglia expressing the histocompatibility glycoprotein HLA-DR were detected using flow cytometry. […]

[4] = target: T1, Moesin; assay: Cellular Thermal Shift Assay (CETSA); format: cell-based
From the text: CETSA: To further ascertain the binding between Moesin and small compounds, we are currently developing Cellular Thermal Shift Assay (CETSA), a convenient cell-based test for identifying target engagement between ligands (i.e. a drug candidate) and their protein targets (PMID:XXX). CETSA has been previously used to measure the binding of small molecules to Ezrin (another FERM protein similar to Moesin) in a cellular environment (PMID: 33003361). The assay consists of the measurement of the shift in thermal stability of the target protein (Moesin) in the presence of the small molecules. The apparent melting temperature (Tm), observed in the presence or the absence of a bioactive compound, can be evaluated by measuring the persistence of soluble protein at different temperatures. If the compound binds to the protein of interest, a shift in melting temperature is observed.

[5] = target: T1, Moesin; assay: Biophysical binding of P1 analogs (SAR); conditions: first round of analogs
From the text: Indeed, such experiments defined the known structural interactions between CD44, and Msn based on a co-crystal structure of this protein-protein complex. It was proposed that the binding of Msn through CD44 could be mimicked by small molecules. By performing in silico docking on the CD44 binding pocket, using a virtual screen of 50,000 compounds and 200,000 pharmacophores and guided by FERM domain-peptide co-crystal structures, such experiments identified druggable pockets in these FERM proteins. Top scoring compounds were tested for binding to recombinant purified FERM proteins using several biophysical methods.
• Before engaging in custom synthesis, we searched for additional commercially available analogs to expand SAR at the east part of the P1, keeping the piperidinemethyl-heterocycle constant (FIG. 7, red oval). A total of 4.2M compounds were searched for a match to P1 features. “Drug-like” ZINC database 2019 and ChemBridge catalogue provided P1 analogues commercially available. 18 compounds matching the search criteria were selected and tested for biophysical binding. […] Our next SAR analogs will thus include structural modifications that will explore hydrogen bond patterns and the size of the fragments in the 5-hydroxypiperonyl/pyrazolopyridine area. […]

T1 sequence (P26038 whole entry): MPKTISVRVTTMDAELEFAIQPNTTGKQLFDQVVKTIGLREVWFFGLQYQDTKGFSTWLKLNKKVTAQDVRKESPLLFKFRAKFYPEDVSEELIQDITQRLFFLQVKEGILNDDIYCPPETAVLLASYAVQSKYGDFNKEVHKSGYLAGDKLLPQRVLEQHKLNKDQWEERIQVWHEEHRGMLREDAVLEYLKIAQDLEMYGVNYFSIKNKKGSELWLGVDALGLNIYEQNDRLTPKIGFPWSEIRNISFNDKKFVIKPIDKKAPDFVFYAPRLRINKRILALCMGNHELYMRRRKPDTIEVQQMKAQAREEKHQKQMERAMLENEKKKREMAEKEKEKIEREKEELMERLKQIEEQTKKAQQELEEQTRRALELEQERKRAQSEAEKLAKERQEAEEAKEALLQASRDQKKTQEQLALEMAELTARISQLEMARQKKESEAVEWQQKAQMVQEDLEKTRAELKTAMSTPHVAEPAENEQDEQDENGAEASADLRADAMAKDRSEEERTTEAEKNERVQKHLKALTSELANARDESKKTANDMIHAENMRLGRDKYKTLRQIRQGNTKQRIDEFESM
Sequence of GST (P08515 2-218 limits assumed): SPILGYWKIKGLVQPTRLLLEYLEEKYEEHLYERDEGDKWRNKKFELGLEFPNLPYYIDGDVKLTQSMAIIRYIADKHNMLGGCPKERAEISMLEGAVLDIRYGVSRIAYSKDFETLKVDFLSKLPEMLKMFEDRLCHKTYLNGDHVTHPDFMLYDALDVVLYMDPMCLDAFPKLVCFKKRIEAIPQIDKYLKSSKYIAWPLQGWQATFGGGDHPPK

Row | Structure (SMILES) | binding to Moesin [1] | binding to the control GST [2] | HLA-DR level [3] | shift in melting temperature of Moesin [4] | binding relative to P1 [5]
1 | CN1CCC(Cc2noc(CCc3nc4cccnc4n3C)n2)CC1 [P1] | binding specifically | did not bind | reduced | discrete shift | –
2 | CC(Oc1ccc2c(c1)OCO2)c1nc(CC2CCN(C)CC2)no1 (centres unmarked) [Plsar3] | – | – | – | – | improved binding
